Results from patent US8293745B2 (Bioniche Life Sciences Inc., priority 2004, dated 2012).

Key:
HIV-1 = settings: cited from earlier work
EMC virus = settings: L929 cells; cited from earlier work
[1] = test system: GIST of the posterior wall of the stomach; assay: Imatinib mesylate treatment of GIST in the same patient
HCV = settings: 400 mg/day
Experimental: A person diagnosed with chronic active hepatitis C. […] The patient was positive for antibodies for HCV. Histological confirmation of chronic hepatitis was corroborated by positive hepatic biopsies at month zero.
For 18 months, the patient was treated with interferon alpha-2 at 180 μg/week. For the next 4 months, the patient was given intravenous administration of 6 million units (MU) interferon-beta daily for 6 weeks followed by three times weekly for 20 weeks. Subsequently, the patient was treated with interferon alpha-2 at 180 μg/week plus ribavirin 1000-1200 mg/day for 5 months. Subsequently, the patient was treated with pegylated interferon alpha-2b (PEG-interferon) at 1.5 μg/kg once weekly for 25 months.
Subsequently, the patient was diagnosed with a GIST of the posterior wall of the stomach. […] The patient then underwent surgical resection of the GIST.

c-Kit tyrosine kinase = settings: cited from earlier work
chronic phase CML = settings: high-dose, newly diagnosed chronic phase CML; cited from earlier work
[2] = human patient with HCV and GIST, within 2 weeks after the beginning of treatment, FIG. 1

SMILES: OCCC#Cc1nc(-c2ccc(F)cc2)c(-c2ccncc2)n1CCCc1ccccc1 [RWJ67657]
- HIV-1 replication (HIV-1): effective in inhibiting HIV-1 replication

SMILES: O=c1c(-c2ccc(O)cc2)coc2cc(O)cc(O)c12 [genistein]
- EMC virus replication (EMC virus): suppressed viral replication

SMILES: CO[C@H]1[C@@H](OC)C[C@H](C)[C@@H](OC)C2=CC(=O)C=C(NC(=O)/C(C)=C/C=C\[C@H](OC)[C@@H](OC(N)=O)/C(C)=C/[C@@H]1C)C2=O [herbimycin A]
- EMC virus replication (EMC virus): suppressed viral replication

SMILES: CS(=O)(=O)O.Cc1ccc(NC(=O)c2ccc(CN3CCN(C)CC3)cc2)cc1Nc1nccc(-c2cccnc2)n1 [imatinib mesylate, 4-[(4-methyl-1-piperazinyl)methyl]-N-[4-methyl-3-[[4-(3-pyridinyl)-2-pyrimidinyl]amino]phenyl]-benzamide methanesulfonate]
- remission of GIST ([1]; 400 mg/day, pre- and postoperative): achieved cytogenetic and molecular remission
- complication during treatment ([1]; after 5 months preoperative 400 mg/day, treatment halted): acute hemorrhage of the tumor
- attenuation of the gastric tumor (histologic examination) ([1]; after imatinib mesylate treatment): significant decreased attenuation
- metastasis status ([1]; one year after the initiation of treatment): without metastasis
- levels of alanine aminotransferase (HCV; [2]): dramatically decreased
- levels of aspartate aminotransferase (HCV; [2]): dramatically decreased
- quality of life (HCV; patient-reported): clear improvement

SMILES: Cc1ccc(NC(=O)c2ccc(CN3CCN(C)CC3)cc2)cc1Nc1nccc(-c2cccnc2)n1 [imatinib, 4-[(4-methyl-1-piperazinyl)methyl]-N-[4-methyl-3-[[4-(3-pyridinyl)-2-pyrimidinyl]amino]phenyl]-benzamide]
- inhibition of c-Kit tyrosine kinase activity, wild-type vs constitutively active enzyme (c-Kit tyrosine kinase): equally effective against both wild-type and constitutively active enzyme
- rates of complete cytogenetic response and of molecular response (chronic phase CML): higher rates
